Converted amounts (≈) assume the structure as drawn. Like-named read-outs stand apart in the source and are kept apart here.
Key:
M. hyopneumoniae JF 435 = test: MIC against Mycoplasma in vitro (Friis broth with agarose); assay type: cell-based; conditions: Mesomycoplasma hyopneumoniae, JF435, 144 h
S. typhimurium S18 = test: MIC against veterinary bacteria in vitro (Diagnostic Sensitivity Test Agar); conditions: Salmonella enterica, 18 h
Description: (§1) The activity of the normonyl derivatives of the Examples against various veterinarily important bacteria, was assayed in vitro using two-fold serial dilutions in Diagnostic Sensitivity Test Agar inoculated with 10^4 organisms.

Strep. dysgalactiae SPD1 = test: as above; conditions: Streptococcus dysgalactiae, SPD1, 18 h
Description: as §1

M. hyopneumoniae TAM 6N = test: MIC against Mycoplasma in vitro (Friis broth with agarose); assay type: cell-based; conditions: Mesomycoplasma hyopneumoniae, TAM6N, 144 h
Past. multocida PA2 = test: MIC against veterinary bacteria in vitro (Diagnostic Sensitivity Test Agar); conditions: Pasteurella multocida, PA2, 18 h
Description: as §1

[1] = system: M. hyopneumoniae J2206/183^b; test: MIC against Mycoplasma in vitro (Friis broth with agarose); assay type: cell-based; conditions: Mesomycoplasma hyopneumoniae, 144 h; M. hyopneumoniae J2206/183^b; 6 days at 37° C; read-out: MIC
Bord. bronchiseptica B08 = test: MIC against veterinary bacteria in vitro (Diagnostic Sensitivity Test Agar); conditions: Bordetella bronchiseptica, B08, 18 h
Description: as §1

M. hyopneumoniae MS 16 = test: MIC against Mycoplasma in vitro (Friis broth with agarose); assay type: cell-based; conditions: Mesomycoplasma hyopneumoniae, MS16, 144 h; M. hyopneumoniae MS 16; 6 days at 37° C; read-out: MIC
[2] = system: M. hyopneumoniae ATCC 25095; test: as above; assay type: cell-based; conditions: Mesomycoplasma hyopneumoniae, ATCC25095, 144 h; M. hyopneumoniae ATCC 25095; 6 days at 37° C; read-out: MIC
Bord. bronchiseptica B09 = test: MIC against veterinary bacteria in vitro (Diagnostic Sensitivity Test Agar); conditions: Bordetella bronchiseptica, B09, 18 h
Description: as §1

Past. multocida PA1 = test: as above; conditions: Pasteurella multocida, PA1, 18 h
Description: as §1

M. hyopneumoniae UCD 1 = test: MIC against Mycoplasma in vitro (Friis broth with agarose); assay type: cell-based; conditions: Mesomycoplasma hyopneumoniae, UCD1, 144 h; M. hyopneumoniae UCD 1; 6 days at 37° C; read-out: MIC
[3] = system: Erysipelothrix rhusiopathiae NCTC 8163; test: MIC against veterinary bacteria in vitro (Diagnostic Sensitivity Test Agar); conditions: NCTC8163, 18 h
Description: as §1

[4] = system: M. hyosynoviae ATCC 25591; test: MIC against Mycoplasma in vitro (Friis broth with agarose); assay type: cell-based; conditions: 144 h; M. hyosynoviae ATCC 25591; 6 days at 37° C; read-out: MIC
M. pneumoniae ATCC 15492 = test: as above; assay type: cell-based; conditions: Mycoplasmoides pneumoniae, ATCC15492, 144 h; M. pneumoniae ATCC 15492; 6 days at 37° C; read-out: MIC
M. gallisepticum S6 = test: as above; assay type: cell-based; conditions: Mycoplasmoides gallisepticum, 144 h; M. gallisepticum S6; 6 days at 37° C; read-out: MIC
[5] = system: Corynebacterium pyogenes CY1; test: MIC against veterinary bacteria in vitro (Diagnostic Sensitivity Test Agar); conditions: CY1, 18 h
Description: as §1

[6] = system: Strep. suis (group D) SPS11; test: as above; conditions: Streptococcus suis, 18 h
Description: as §1

[7] = system: Staph. aureus 152 (pen. sens); test: as above; conditions: Staphylococcus aureus, 18 h
Description: as §1

[8] = system: M. bovigenitalium ATCC 14173; test: MIC against Mycoplasma in vitro (Friis broth with agarose); assay type: cell-based; conditions: 144 h
E. coli E1 = test: MIC against veterinary bacteria in vitro (Diagnostic Sensitivity Test Agar); conditions: Escherichia coli, E1, 18 h
Description: as §1

M. dispar NCTC 10125 = test: MIC against Mycoplasma in vitro (Friis broth with agarose); assay type: cell-based; conditions: 144 h; M. dispar NCTC 10125; 6 days at 37° C; read-out: MIC
M. bovis NCTC 10131 = test: microbe, parasite or virus in culture; assay type: cell-based; conditions: NCTC10131, 144 h
M. hyopneumoniae Str. 11 = test: MIC against Mycoplasma in vitro (Friis broth with agarose); assay type: cell-based; conditions: Mesomycoplasma hyopneumoniae
[9] = system: Staph. aureus B4 (pen. resistant); test: MIC against veterinary bacteria in vitro (Diagnostic Sensitivity Test Agar); conditions: Staphylococcus aureus, 18 h
Description: as §1

Strep. agalactiae SPA1 = test: as above; conditions: Streptococcus agalactiae, SPA1, 18 h
Description: as §1

E. coli NCTC 10418 = test: as above; conditions: Escherichia coli, NCTC10418, 18 h
Description: as §1

Strep. uberis SPU1 = test: as above; conditions: Streptococcus uberis, SPU1, 18 h
Description: as §1

[10] = system: M. hyopneumoniae NCTC 101101; test: MIC against Mycoplasma in vitro (Friis broth with agarose); assay type: cell-based; conditions: Mesomycoplasma hyopneumoniae, NCTC101101, 144 h
M. hyorhinis ATCC 25021 = test: as above; assay type: cell-based; conditions: Mesomycoplasma hyorhinis, ATCC25021, 144 h; M. hyorhinis ATCC 25021; 6 days at 37° C; read-out: MIC
[11] = M. hyopneumoniae JF 435, 6 days at 37° C, read-out: MIC
[12] = M. hyopneumoniae TAM 6N, 6 days at 37° C, read-out: MIC
[13] = 144 h, M. hyopneumoniae Str. 11, 6 days at 37° C, read-out: MIC
[14] = M. bovigenitalium ATCC 14173, 6 days at 37° C, read-out: MIC

| Structure (SMILES) | MIC (S. typhimurium S18) [µg/mL] | MIC (Strep. dysgalactiae SPD1) [µg/mL] | MIC (Past. multocida PA2) [µg/mL] | MIC (Bord. bronchiseptica B08) [µg/mL] | MIC (M. hyopneumoniae MS 16) [µg/mL] | MIC [2] [µg/mL] | MIC (Bord. bronchiseptica B09) [µg/mL] | MIC (Past. multocida PA1) [µg/mL] | MIC (M. hyopneumoniae UCD 1) [µg/mL] | MIC [3] [µg/mL] | MIC [4] [µg/mL] | MIC (M. pneumoniae ATCC 15492) [µg/mL] | MIC (M. gallisepticum S6) [µg/mL] | MIC [5] [µg/mL] | MIC [6] [µg/mL] | MIC [7] [µg/mL] | MIC (E. coli E1) [µg/mL] | MIC (M. dispar NCTC 10125) [µg/mL] | MIC (M. bovis NCTC 10131) [µg/mL] | MIC [9] [µg/mL] | also measured |
| --- | --- | --- | --- | --- | --- | --- | --- | --- | --- | --- | --- | --- | --- | --- | --- | --- | --- | --- | --- | --- | --- |
| CC(=Cc1nnc(-c2ccccc2)o1)CC1OCC(CC2OC2C(C)C(C)O)C(O)C1O (centres unmarked) [Example 1, 2-(1-Normon-2-yl)-5-phenyl-1,3,4-oxadiazole A] | > 80 | 10 (≈ 22.5 µM) | 1.25 (≈ 2.81 µM) | > 80 | 2.5 (≈ 5.62 µM) | 2.5 (≈ 5.62 µM) | 40 (≈ 90 µM) | 10 (≈ 22.5 µM) | 5 (≈ 11.2 µM) | 80 (≈ 180 µM) | 1 (≈ 2.25 µM) | > 10 | > 10 | > 80 | 80 (≈ 180 µM) | 5 (≈ 11.2 µM) | > 80 | 0.5 (≈ 1.12 µM) | 0.05 (≈ 0.112 µM) | 5 (≈ 11.2 µM) | MIC (M. hyopneumoniae JF 435; [11]): 5 µg/mL (≈ 11.2 µM); MIC (M. hyopneumoniae TAM 6N; [12]): 5 µg/mL (≈ 11.2 µM); MIC [1]: 5 µg/mL (≈ 11.2 µM); MIC [8]: 0.1 µg/mL (≈ 0.225 µM); MIC (M. hyopneumoniae Str. 11; [13]): 2.5 µg/mL (≈ 5.62 µM); MIC (Strep. agalactiae SPA1): 40 µg/mL (≈ 90 µM); MIC (E. coli NCTC 10418): > 80 µg/mL; MIC (Strep. uberis SPU1): 5 µg/mL (≈ 11.2 µM); MIC ([10]; M. hyopneumoniae NCTC 101101, 6 days at 37° C, read-out: MIC): 5 µg/mL (≈ 11.2 µM); MIC (M. hyorhinis ATCC 25021): 1 µg/mL (≈ 2.25 µM) |
| CC(=Cc1nnc(-c2cccc([N+](=O)[O-])c2)o1)CC1OCC(CC2OC2C(C)C(C)O)C(O)C1O (centres unmarked) [Example 2, 2-m-Nitrophenyl-5-(1-normon-2-yl)-1,3,4-oxadiazole A] | > 80 | 5 (≈ 10.2 µM) | 1.25 (≈ 2.55 µM) | > 80 | 0.025 (≈ 0.0511 µM) | 0.025 (≈ 0.0511 µM) | 80 (≈ 163 µM) | 2.5 (≈ 5.11 µM) | 0.025 (≈ 0.0511 µM) | 40 (≈ 81.7 µM) | 0.5 (≈ 1.02 µM) | 2.5 (≈ 5.11 µM) | > 10 | > 80 | > 80 | 10 (≈ 20.4 µM) | > 80 | < 0.01 | 0.025 (≈ 0.0511 µM) | 5 (≈ 10.2 µM) | MIC (M. hyopneumoniae JF 435): 0.05 µg/mL (≈ 0.102 µM); MIC (M. hyopneumoniae TAM 6N): 0.05 µg/mL (≈ 0.102 µM); MIC [1]: 0.025 µg/mL (≈ 0.0511 µM); MIC [8, 14]: 0.025 µg/mL (≈ 0.0511 µM); MIC (M. hyopneumoniae Str. 11; [13]): 0.025 µg/mL (≈ 0.0511 µM); MIC (Strep. agalactiae SPA1): 10 µg/mL (≈ 20.4 µM); MIC (E. coli NCTC 10418): > 80 µg/mL; MIC (Strep. uberis SPU1): 2.5 µg/mL (≈ 5.11 µM); MIC [10]: 0.05 µg/mL (≈ 0.102 µM); MIC (M. hyorhinis ATCC 25021): 0.025 µg/mL (≈ 0.0511 µM) |
| CSc1ccc(-c2nnc(C=C(C)CC3OCC(CC4OC4C(C)C(C)O)C(O)C3O)o2)cc1 (centres unmarked) [Example 3, 2-p-Methylthiophenyl-5-(1-normon-2-yl)-1,3,4-oxadiazole A] | > 80 | 10 (≈ 20.4 µM) | 2.5 (≈ 5.1 µM) | > 80 | 0.5 (≈ 1.02 µM) | 1 (≈ 2.04 µM) | 5 (≈ 10.2 µM) | 2.5 (≈ 5.1 µM) | 1 (≈ 2.04 µM) | 40 (≈ 81.5 µM) | 2.5 (≈ 5.1 µM) | > 10 | > 10 | > 80 | 80 (≈ 163 µM) | 2.5 (≈ 5.1 µM) | > 80 | 0.25 (≈ 0.51 µM) | 0.1 (≈ 0.204 µM) | 2.5 (≈ 5.1 µM) | MIC (M. hyopneumoniae JF 435; [11]): 2.5 µg/mL (≈ 5.1 µM); MIC (M. hyopneumoniae TAM 6N; [12]): 2.5 µg/mL (≈ 5.1 µM); MIC [8, 14]: 0.5 µg/mL (≈ 1.02 µM); MIC (M. hyopneumoniae Str. 11; STR.11, 144 h): 1 µg/mL (≈ 2.04 µM); MIC (Strep. agalactiae SPA1): 10 µg/mL (≈ 20.4 µM); MIC (E. coli NCTC 10418): > 80 µg/mL; MIC (Strep. uberis SPU1): 2.5 µg/mL (≈ 5.1 µM); MIC [10]: 1 µg/mL (≈ 2.04 µM); MIC (M. hyorhinis ATCC 25021): 0.5 µg/mL (≈ 1.02 µM) |
